39 compounds from ChEMBL document CHEMBL2434831, “Imidazo[4,5-b]pyridine inhibitors of B-Raf kinase” (Bioorg Med Chem Lett, 2013) can be followed below.

Series [1] has as its system Serine/threonine-protein kinase B-raf (Homo sapiens), P15056 [V600E]. Put plainly: Ratio of IC50 for B-Raf V600E mutant in human Malme-3M cells to IC50 for full length B-Raf V600E mutant (unknown origin). Format: cell-based.
The target in series [2] is T1, Serine/threonine-protein kinase B-raf (Homo sapiens, UniProt P15056, V600E). Put plainly: Inhibition of B-Raf V600E mutant in human Malme-3M cells assessed as basal ERK phosphorylation. Format: cell-based.
T1 sequence (P15056 2-766 V600E limits assumed): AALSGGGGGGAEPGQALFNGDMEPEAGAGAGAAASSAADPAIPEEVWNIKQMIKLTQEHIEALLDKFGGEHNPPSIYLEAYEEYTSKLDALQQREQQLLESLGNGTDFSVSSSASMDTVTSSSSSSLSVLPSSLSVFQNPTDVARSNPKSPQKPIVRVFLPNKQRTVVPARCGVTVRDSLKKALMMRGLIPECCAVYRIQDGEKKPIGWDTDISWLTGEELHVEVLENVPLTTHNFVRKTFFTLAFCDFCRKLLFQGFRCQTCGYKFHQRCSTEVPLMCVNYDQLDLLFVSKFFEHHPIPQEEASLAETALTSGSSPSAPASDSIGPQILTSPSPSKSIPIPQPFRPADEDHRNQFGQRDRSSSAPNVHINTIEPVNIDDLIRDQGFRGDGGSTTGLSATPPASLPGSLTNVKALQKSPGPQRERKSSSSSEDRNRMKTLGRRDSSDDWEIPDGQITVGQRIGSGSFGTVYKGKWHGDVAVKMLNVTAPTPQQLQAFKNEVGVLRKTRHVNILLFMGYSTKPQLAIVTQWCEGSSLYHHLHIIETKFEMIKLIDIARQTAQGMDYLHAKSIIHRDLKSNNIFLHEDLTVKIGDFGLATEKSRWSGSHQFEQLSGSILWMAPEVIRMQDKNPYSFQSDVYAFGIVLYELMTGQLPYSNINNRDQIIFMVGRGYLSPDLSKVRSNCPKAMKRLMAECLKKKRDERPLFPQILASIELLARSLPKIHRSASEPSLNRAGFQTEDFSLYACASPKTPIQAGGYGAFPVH
In series [3] the target is T1, Serine/threonine-protein kinase B-raf. Put plainly: Inhibition of full length B-Raf V600E mutant (unknown origin).
A short description of series [4]: Permeability from apical to basolateral side in human Caco2 cells. Format: ADME, cell-based. Conditions: Caco-2, read-out: permeability; call rule not given here.
A short description of series [5]: Inhibition of cytochrome P450 (unknown origin). The following applies: human. Format: ADME.

Serine/threonine-protein kinase B-raf (Homo sapiens), P15056 [V600E], sequence (P15056 whole entry V600E): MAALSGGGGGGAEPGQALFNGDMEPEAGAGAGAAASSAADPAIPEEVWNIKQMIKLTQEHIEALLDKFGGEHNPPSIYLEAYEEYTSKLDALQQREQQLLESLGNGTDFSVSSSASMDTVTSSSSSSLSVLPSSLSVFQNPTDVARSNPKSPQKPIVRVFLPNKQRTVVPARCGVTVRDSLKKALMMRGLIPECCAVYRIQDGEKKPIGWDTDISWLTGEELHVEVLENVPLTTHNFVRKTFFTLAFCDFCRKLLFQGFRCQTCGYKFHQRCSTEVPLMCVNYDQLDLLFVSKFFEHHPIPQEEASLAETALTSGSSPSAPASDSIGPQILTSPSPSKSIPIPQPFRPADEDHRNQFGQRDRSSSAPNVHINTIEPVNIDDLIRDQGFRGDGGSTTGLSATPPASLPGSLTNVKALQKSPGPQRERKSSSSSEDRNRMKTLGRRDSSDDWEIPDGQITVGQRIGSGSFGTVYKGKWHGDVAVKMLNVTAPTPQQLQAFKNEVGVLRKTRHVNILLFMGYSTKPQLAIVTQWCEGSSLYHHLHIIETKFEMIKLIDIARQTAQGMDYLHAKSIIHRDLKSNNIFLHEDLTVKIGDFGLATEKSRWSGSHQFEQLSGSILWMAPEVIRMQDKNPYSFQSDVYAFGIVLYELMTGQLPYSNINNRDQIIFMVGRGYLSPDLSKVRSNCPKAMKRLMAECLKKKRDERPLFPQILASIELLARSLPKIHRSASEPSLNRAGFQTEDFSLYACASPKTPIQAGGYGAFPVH

A word on the IC50: it is the concentration at which inhibition is half-maximal. For the compound `CCCS(=O)(=O)Nc1ccc(F)c(C(=O)Nc2cnc3[nH]c(-c4ccc(C#N)cc4)nc3c2)c1F`, the Ratio IC50 in series [1] was 88. For the same compound, the IC50 in series [2] turned out to be 239 nM; in series [3] it was 2.7 nM.

Regarding `CCCS(=O)(=O)Nc1ccc(F)c(C(=O)Nc2cnc3[nH]c(-c4ccc(Cl)cc4)cc3c2)c1F`, the Ratio IC50 in series [1] turned out to be 8.4. Further, the figures for the IC50 in series [2] and in series [3] were 20 nM and 2.4 nM, respectively.

On to `CCCS(=O)(=O)Nc1ccc(F)c(C(=O)Nc2cnc3[nH]c(-c4ccc(Cl)cc4)nc3c2)c1F`, for which the Ratio IC50 in series [1] came out at 71. Besides, the IC50 in series [2] worked out at 157 nM; in series [3], 2.2 nM.

With `CCCS(=O)(=O)Nc1ccc(F)c(C(=O)Nc2cnc3[nH]c(-c4ccc(F)cc4)cc3c2)c1F`, in series [1], the Ratio IC50 worked out at 18. The IC50 in series [2] was 20 nM; in series [3], 1.1 nM.

As to `CCCS(=O)(=O)Nc1ccc(F)c(C(=O)Nc2cnc3[nH]c(-c4cccc(Br)c4)nc3c2)c1F`, the Ratio IC50 in series [1] stood at 226. Also, the IC50 in series [2] was 172 nM; in series [3], 0.76 nM.

With `CCCS(=O)(=O)Nc1ccc(F)c(C(=O)Nc2cnc3[nH]c(-c4cccc(Cl)c4)nc3c2)c1F`, in series [1], the Ratio IC50 came to 62. In addition, the IC50 is 68 nM in series [2] and 1.1 nM in series [3].

On to `CCCS(=O)(=O)Nc1ccc(F)c(C(=O)Nc2cnc3[nH]c(-c4ccc(OC)cc4)nc3c2)c1F`, for which the Ratio IC50 in series [1] was determined as 125. Further, the values for the IC50 in series [2] and in series [3] were 137 nM and 1.1 nM, respectively.

For `CCCS(=O)(=O)Nc1ccc(F)c(C(=O)Nc2cnc3cc(-c4ccccc4)nn3c2)c1F`, in series [4], the Papp A→B stood at 15.6 ×10⁻⁶ cm/s.

Consider `CCCS(=O)(=O)Nc1ccc(F)c(C(=O)Nc2cnc3[nH]c(-c4ccc(C)cc4)nc3c2)c1F`, for which the Papp A→B in series [4] came to 2.6 ×10⁻⁶ cm/s. The Ratio IC50 in series [1] amounted to 38. Further, the IC50 in series [2] was 49 nM; in series [3] it was 1.3 nM.

In the case of `CCCS(=O)(=O)Nc1ccc(F)c(C(=O)Nc2cnc3[nH]c(CC)nc3c2)c1F`, the Ratio IC50 in series [1] is 30. Also, the IC50 in series [2] turned out to be 1770 nM; in series [3], 59 nM.

With `CCCS(=O)(=O)Nc1ccc(F)c(C(=O)Nc2cnc3[nH]c(-c4ccc(Br)cc4)nc3c2)c1F`, the Papp A→B in series [4] is 1.3 ×10⁻⁶ cm/s. Also, the Ratio IC50 in series [1] is 28. The IC50 in series [2] was determined as 61 nM; in series [3] it was 2.2 nM.

As to `CCCS(=O)(=O)Nc1ccc(F)c(C(=O)Nc2cnc3[nH]c(C)nc3c2)c1F`, the Ratio IC50 in series [1] came out at 43. Also, the IC50 in series [2] stood at 1710 nM; in series [3], 40 nM.

For the compound `CCCS(=O)(=O)Nc1ccc(F)c(C(=O)Nc2cnc3[nH]c(-c4ccccc4F)nc3c2)c1F`, the Ratio IC50 in series [1] worked out at 21. Besides, the IC50 was determined as 167 nM in series [2] and 8 nM in series [3].

Consider `CCCS(=O)(=O)Nc1ccc(F)c(C(=O)Nc2cnc3[nH]c(-c4cccc(F)c4)nc3c2)c1F`, for which the Ratio IC50 in series [1] stood at 97. Besides, the figures for the IC50 in series [2] and in series [3] were 298 nM and 3.1 nM, respectively.

Consider `CCCS(=O)(=O)Nc1ccc(F)c(C(=O)Nc2cnc3[nH]c(-c4ccccc4Br)nc3c2)c1F`, for which, in series [1], the Ratio IC50 came to 35. In addition, the IC50 in series [2] stood at 948 nM; in series [3] it was 27 nM.

Consider `CCCS(=O)(=O)Nc1ccc(F)c(C(=O)Nc2cnc3[nH]c(-c4ccc(F)c(F)c4)nc3c2)c1F`, for which the Ratio IC50 in series [1] was 57. Further, the IC50 amounted to 194 nM in series [2] and 3.4 nM in series [3].

Take `CCCS(=O)(=O)Nc1ccc(F)c(C(=O)Nc2cnc3[nH]c(-c4cccc(OC)c4)nc3c2)c1F`: the Ratio IC50 in series [1] came to 219. Further, the IC50 in series [2] is 271 nM; in series [3] it was 1.2 nM.

Regarding `CCCS(=O)(=O)Nc1ccc(F)c(C(=O)Nc2cnc3[nH]c(-c4cccc(C(F)(F)F)c4)nc3c2)c1F`, the Ratio IC50 in series [1] came to 112. The IC50 was determined as 113 nM in series [2] and 1 nM in series [3].

Take `CCCS(=O)(=O)Nc1ccc(F)c(C(=O)Nc2cnc3[nH]ncc3c2)c1F`: the Papp A→B in series [4] amounted to 1.3 ×10⁻⁶ cm/s. The compound also came in with an IC50 in series [3] of 18 nM.

As to `CCCS(=O)(=O)Nc1ccc(F)c(C(=O)Nc2cnc3[nH]c(-c4ccccc4Cl)nc3c2)c1F`, the Ratio IC50 in series [1] is 21. Besides, the IC50 was found to be 557 nM in series [2] and 27 nM in series [3].

`CCCS(=O)(=O)Nc1ccc(F)c(C(=O)Nc2cnc3[nH]c(-c4ccc(F)cc4)nc3c2)c1F`: in series [1], the Ratio IC50 was found to be 240. Moreover, the results for the IC50 in series [2] and in series [3] were 1050 nM and 4.4 nM, respectively.

For `CCCS(=O)(=O)Nc1ccc(F)c(C(=O)Nc2cnc3[nH]cnc3c2)c1F`, the Papp A→B in series [4] turned out to be 0.6 ×10⁻⁶ cm/s. The Ratio IC50 in series [1] came to 39.

Turning to `CCCS(=O)(=O)Nc1ccc(F)c(C(=O)Nc2cnc3[nH]c(-c4ccc(OC(F)(F)F)cc4)nc3c2)c1F`, in series [1], the Ratio IC50 came to 34. Also, the IC50 in series [2] came out at 86 nM; in series [3], 2.5 nM.

Turning to `CCCS(=O)(=O)Nc1ccc(F)c(C(=O)Nc2cnc3[nH]c(C4CCNCC4)nc3c2)c1F`, the Ratio IC50 in series [1] was above 93. For the same compound, the IC50 in series [2] is above 10000 nM; in series [3], 107 nM.

Take `CCCS(=O)(=O)Nc1ccc(F)c(C(=O)Nc2cnc3[nH]c(-c4ccc(C(F)(F)F)cc4)nc3c2)c1F`: the Papp A→B in series [4] was 1 ×10⁻⁶ cm/s. In addition, in series [1], the Ratio IC50 was 62. Further, the results for the IC50 in series [2] and in series [3] were 89 nM and 1.4 nM, respectively.

For the compound `CCCS(=O)(=O)Nc1ccc(F)c(C(=O)Nc2cnc3[nH]c(C(C)C)nc3c2)c1F`, the Ratio IC50 in series [1] worked out at 29. In addition, the concentration for half-maximal inhibition (IC50) in series [2] amounted to 1730 nM; in series [3], 60 nM.

In the case of `CCCS(=O)(=O)Nc1ccc(F)c(C(=O)Nc2cnc3cc(-c4ccc(Cl)cc4)nn3c2)c1F`, in series [1], the Ratio IC50 stood at 11. Besides, the IC50 was 90 nM in series [2] and 8.2 nM in series [3].

As for `CCCS(=O)(=O)Nc1ccc(F)c(C(=O)Nc2cnc3[nH]c(C(C)(C)C)nc3c2)c1F`, the Ratio IC50 in series [1] is 23. Further, the results for the IC50 in series [2] and in series [3] were 1560 nM and 69 nM, respectively.

Regarding `CCCS(=O)(=O)Nc1ccc(F)c(C(=O)Nc2cnc3[nH]c(-c4ccc(Cl)c(Cl)c4)nc3c2)c1F`, the Papp A→B in series [4] was found to be 2 ×10⁻⁶ cm/s. Besides, the Ratio IC50 in series [1] was determined as 54. Also, the values for the IC50 in series [2] and in series [3] were 81 nM and 1.5 nM, respectively. Further, the “inhibition (INH)” value in series [5] is listed as “Not Active”.

Consider `CCCS(=O)(=O)Nc1ccc(F)c(C(=O)Nc2cnc3[nH]c(-c4ccccc4)nc3c2)c1F`, for which the IC50 in series [2] was found to be 132 nM; in series [3], 1.6 nM.

On to `CCCS(=O)(=O)Nc1ccc(F)c(C(=O)Nc2cnc3[nH]c(C4CCC4)nc3c2)c1F`, for which the Ratio IC50 in series [1] was determined as 107. Also, the IC50 in series [2] turned out to be 3330 nM; in series [3] it was 31 nM.

As to `CCCS(=O)(=O)Nc1ccc(F)c(C(=O)Nc2cnc3[nH]c(-c4ccc(S(C)(=O)=O)cc4)nc3c2)c1F`, the Ratio IC50 in series [1] was found to be 527. The figures for the IC50 in series [2] and in series [3] were 728 nM and 1.4 nM, respectively.

For `CCCS(=O)(=O)Nc1ccc(F)c(C(=O)Nc2cnc3[nH]c(-c4cccnc4)nc3c2)c1F`, the Ratio IC50 in series [1] was found to be 375. Besides, the results for the IC50 in series [2] and in series [3] were 1130 nM and 3 nM, respectively.

For the compound `CCCS(=O)(=O)Nc1ccc(F)c(C(=O)Nc2cnc3[nH]c(-c4ccncc4)nc3c2)c1F`, the Ratio IC50 in series [1] came to 596. For the same compound, the IC50 in series [2] is 1910 nM; in series [3] it was 3.2 nM.

On to `CCCS(=O)(=O)Nc1ccc(F)c(C(=O)Nc2cnc3[nH]ccc3c2)c1F`, for which the Papp A→B in series [4] worked out at 7.3 ×10⁻⁶ cm/s. In addition, the IC50 in series [3] was determined as 42 nM.

On to `CCCS(=O)(=O)Nc1ccc(F)c(C(=O)Nc2cnc3[nH]c(C4CCCNC4)nc3c2)c1F` (stereo not drawn), for which the Ratio IC50 in series [1] is above 60. For the same compound, the IC50 in series [2] was above 10000 nM; in series [3] it was 167 nM.

Consider `CCCS(=O)(=O)Nc1ccc(F)c(C(=O)Nc2cnc3cc(-c4ccc(F)cc4)nn3c2)c1F`, for which the Ratio IC50 in series [1] is 4.9.

Take `CCCS(=O)(=O)Nc1ccc(F)c(C(=O)Nc2cnc3ccnn3c2)c1F`: the Papp A→B in series [4] came to 11.4 ×10⁻⁶ cm/s.

With `CCCS(=O)(=O)Nc1ccc(F)c(C(=O)Nc2cnc3[nH]c(-c4ccccc4)cc3c2)c1F`, the Papp A→B in series [4] was found to be 5.6 ×10⁻⁶ cm/s. In addition, in series [1], the Ratio IC50 was 32. The IC50 in series [2] is 32 nM; in series [3] it was 1 nM.
